pIC50: −log10 of the molar value.
Tests used:
Format in all cases: biochemical
[1] = target: JMJD2C (Homo sapiens (Human), UniProt Q9H3R0); test: JMJD2C in vitro enzyme inhibition assay (TR-FRET)
[2] = target: Jarid1B (Homo sapiens (Human), UniProt Q9UGL1); test: Jarid1B in vitro enzyme inhibition assay (TR-FRET)
Method: This assay determines the ability of a test compound to inhibit Jarid1A, Jarid1B, JMJD2C, and JMJD2A demethylase activity.
The ability of test compounds to inhibit the activity of Jarid1B was determined in 384-well plate format under the following reaction conditions: 0.8 nM Jarid1B, 300 nM H3K4me3-biotin labeled peptide (Anaspec cat #64357), 2 μM alpha-ketoglutaric acid in assay buffer of 50 mM HEPES, pH7.3, 0.005% Brij35, 0.5 mM TCEP, 0.2 mg/ml BSA, 50 μM sodium L-ascorbate, and 2 μM ammonium iron(II) sulfate. Reaction product was determined quantitatively by TR-FRET after the addition of detection reagent Phycolink Streptavidin-allophycocyanin (Prozyme) and Europium-anti-mono- or di-methylated histone H3 lysine 4 (H3K4me1-2) antibody (PerkinElmer) in the presence of 5 mM EDTA in LANCE detection buffer (PerkinElmer) at a final concentration of 25 nM and 1 nM, respectively.
The assay reaction was initiated by the following: 2 μl of the mixture of 900 nM H3K4me3-biotin labeled peptide and 6 μM alpha-ketoglutaric acid with 2 μl of 11-point serial diluted inhibitor in 3% DMSO was added to each well of the plate, followed by the addition of 2 μl of 2.4 nM Jarid1B to initiate the reaction. The reaction mixture was incubated at room temperature for 30 minutes, and terminated by the addition of 6 μl of 5 mM EDTA in LANCE detection buffer containing 50 nM Phycolink Streptavidin-allophycocyanin and 2 nM Europium-anti-H3K4me1-2 antibody. Plates were read by EnVisionMultilabel Reader in TR-FRET mode (excitation at 320 nm, emission at 615 nm and 665 nm) after 1 hour incubation at room temperature. A ratio was calculated (665/615) for each well and fitted to determine inhibition constant (IC50).

[3] = target: FBXL10 (Homo sapiens (Human), UniProt Q8NHM5); test: FBXL10 in vitro enzyme inhibition assay (AlphaScreen)
Method: Reaction product was determined quantitatively by AlphaScreen detection after the addition of detection reagents anti-H3K36me1 antibody, AlphaScreen® Streptavidin-coated Donor beads, and AlphaScreen® Protein A Acceptor beads in 50 mM HEPES, pH7.3, 10 mM NaCl, 0.005% Brij35, 5 mM EDTA, 2 mg/ml BSA to final 10 μg/ml beads.
Plates were incubated at room temperature for 40 minutes, followed by addition of 3 μl of 50 μg/ml AlphaScreen® Streptavidin-coated Donor beads and AlphaScreen® Protein A Acceptor beads in 50 mM HEPES, pH7.3, 10 mM NaCl, 0.005% Brij35, 5 mM EDTA, 2 mg/ml BSA. Plates were read by EnVisionMultilabel Reader in AlphaScreen mode after a minimum of 2 hour or up to overnight incubation at room temperature. The AlphaScreen signal for each well was used to determine inhibition constant (IC50).

[4] = target: Jarid1A (Homo sapiens (Human), UniProt P29375); test: Jarid1A in vitro enzyme inhibition assay (TR-FRET)
Text: The enzymatic assay of Jarid1A activity is based upon Time Resolved-Fluorescence Resonance Energy Transfer (TR-FRET) detection.

FBXL10, sequence (Q8NHM5 1-650): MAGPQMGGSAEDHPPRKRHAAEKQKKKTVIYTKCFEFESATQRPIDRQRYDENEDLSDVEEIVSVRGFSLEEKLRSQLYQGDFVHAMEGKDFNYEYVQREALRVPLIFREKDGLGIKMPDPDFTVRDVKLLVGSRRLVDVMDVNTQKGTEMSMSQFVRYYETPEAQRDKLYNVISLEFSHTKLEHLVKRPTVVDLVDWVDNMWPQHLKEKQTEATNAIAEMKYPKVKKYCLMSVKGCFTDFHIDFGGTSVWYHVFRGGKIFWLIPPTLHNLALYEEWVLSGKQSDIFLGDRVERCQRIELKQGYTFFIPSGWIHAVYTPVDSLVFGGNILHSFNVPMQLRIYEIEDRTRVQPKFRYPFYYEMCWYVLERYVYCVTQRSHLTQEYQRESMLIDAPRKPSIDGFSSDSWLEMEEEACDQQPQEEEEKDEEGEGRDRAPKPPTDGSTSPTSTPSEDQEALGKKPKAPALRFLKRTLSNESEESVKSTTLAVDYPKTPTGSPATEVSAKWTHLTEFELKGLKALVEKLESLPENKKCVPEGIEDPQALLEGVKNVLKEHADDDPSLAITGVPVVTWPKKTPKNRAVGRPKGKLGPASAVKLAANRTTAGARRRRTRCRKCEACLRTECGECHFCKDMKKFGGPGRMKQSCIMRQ
Jarid1B, sequence (Q9UGL1 2-751): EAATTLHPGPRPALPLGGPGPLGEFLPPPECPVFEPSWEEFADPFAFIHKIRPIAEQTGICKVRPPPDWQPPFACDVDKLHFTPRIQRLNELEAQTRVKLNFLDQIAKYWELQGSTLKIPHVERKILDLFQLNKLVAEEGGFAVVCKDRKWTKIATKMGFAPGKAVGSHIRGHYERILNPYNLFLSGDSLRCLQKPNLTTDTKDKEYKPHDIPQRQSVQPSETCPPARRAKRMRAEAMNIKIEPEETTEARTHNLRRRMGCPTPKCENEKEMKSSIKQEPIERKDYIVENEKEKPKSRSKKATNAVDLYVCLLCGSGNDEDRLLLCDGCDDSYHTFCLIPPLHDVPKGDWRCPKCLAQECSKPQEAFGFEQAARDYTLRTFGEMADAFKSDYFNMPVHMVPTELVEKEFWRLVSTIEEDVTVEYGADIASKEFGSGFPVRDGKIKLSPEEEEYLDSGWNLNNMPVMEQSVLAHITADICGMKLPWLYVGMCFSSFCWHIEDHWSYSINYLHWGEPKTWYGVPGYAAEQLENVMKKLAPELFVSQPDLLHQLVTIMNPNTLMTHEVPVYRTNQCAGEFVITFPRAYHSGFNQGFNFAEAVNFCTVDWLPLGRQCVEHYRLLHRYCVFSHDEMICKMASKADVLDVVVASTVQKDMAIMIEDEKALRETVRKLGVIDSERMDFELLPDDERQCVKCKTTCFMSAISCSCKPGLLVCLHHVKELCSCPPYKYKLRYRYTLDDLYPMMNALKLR
Jarid1A, sequence (P29375 1-1090): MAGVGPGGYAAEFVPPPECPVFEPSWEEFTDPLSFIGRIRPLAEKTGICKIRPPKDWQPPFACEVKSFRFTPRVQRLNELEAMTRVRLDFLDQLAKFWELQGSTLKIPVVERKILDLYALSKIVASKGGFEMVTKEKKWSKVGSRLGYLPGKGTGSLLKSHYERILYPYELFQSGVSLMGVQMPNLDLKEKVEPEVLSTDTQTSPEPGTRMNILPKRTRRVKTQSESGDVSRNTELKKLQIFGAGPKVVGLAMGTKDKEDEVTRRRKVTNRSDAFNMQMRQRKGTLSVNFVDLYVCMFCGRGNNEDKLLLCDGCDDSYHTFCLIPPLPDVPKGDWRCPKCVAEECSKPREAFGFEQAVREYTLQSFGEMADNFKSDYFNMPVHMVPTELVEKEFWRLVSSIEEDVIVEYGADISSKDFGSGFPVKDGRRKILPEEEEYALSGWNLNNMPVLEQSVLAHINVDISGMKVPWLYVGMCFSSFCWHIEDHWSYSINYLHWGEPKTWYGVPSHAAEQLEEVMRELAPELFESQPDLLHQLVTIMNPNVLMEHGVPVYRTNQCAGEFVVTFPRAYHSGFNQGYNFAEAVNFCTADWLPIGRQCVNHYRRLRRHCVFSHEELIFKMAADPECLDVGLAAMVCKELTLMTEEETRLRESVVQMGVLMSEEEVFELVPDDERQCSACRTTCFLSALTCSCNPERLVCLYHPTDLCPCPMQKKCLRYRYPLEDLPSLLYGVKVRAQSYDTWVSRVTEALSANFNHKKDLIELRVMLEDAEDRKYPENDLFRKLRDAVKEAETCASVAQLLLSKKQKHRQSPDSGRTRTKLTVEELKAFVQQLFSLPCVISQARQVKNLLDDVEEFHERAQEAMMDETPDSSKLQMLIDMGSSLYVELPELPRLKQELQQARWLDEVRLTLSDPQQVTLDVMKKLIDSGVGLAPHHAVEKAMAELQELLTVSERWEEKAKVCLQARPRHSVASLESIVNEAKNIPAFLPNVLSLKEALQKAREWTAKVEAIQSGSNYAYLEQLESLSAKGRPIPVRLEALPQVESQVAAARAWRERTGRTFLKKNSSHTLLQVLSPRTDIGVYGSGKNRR
JMJD2C, sequence (Q9H3R0 2-372): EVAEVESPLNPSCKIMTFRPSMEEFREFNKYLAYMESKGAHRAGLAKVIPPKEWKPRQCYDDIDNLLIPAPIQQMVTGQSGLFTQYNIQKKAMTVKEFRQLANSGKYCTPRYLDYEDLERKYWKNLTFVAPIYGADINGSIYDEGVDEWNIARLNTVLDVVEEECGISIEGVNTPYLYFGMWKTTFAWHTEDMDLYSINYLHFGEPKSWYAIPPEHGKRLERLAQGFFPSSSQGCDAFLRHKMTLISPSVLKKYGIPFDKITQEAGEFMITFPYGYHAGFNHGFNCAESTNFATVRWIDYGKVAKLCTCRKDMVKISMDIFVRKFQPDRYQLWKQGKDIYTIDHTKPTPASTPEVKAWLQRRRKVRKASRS

SMILES | pIC50 [1] | pIC50 [2] | pIC50 [3] | pIC50 [4]
C#Cc1ccc(-c2c(-c3cc(C(=O)O)ccn3)ncn2C)cc1 [Example 21, 2-[5-(4-ethynylphenyl)-1-methyl-1H-imidazol-4-yl]pyridine-4-carboxylic acid] | 6.00 to 7.00 | ≥ 7.00 | ≥ 7.00 | ≥ 7.00
Cn1cnc(-c2cc(C(=O)O)ccn2)c1-c1cccc(F)c1 [Example 24, 2-[5-(3-fluorophenyl)-1-methyl-1H-imidazol-4-yl]pyridine-4-carboxylic acid] | 6.00 to 7.00 | ≥ 7.00 | ≥ 7.00 | ≥ 7.00
Cn1cnc(-c2cc(C(=O)O)ccn2)c1-c1ccc(Cl)cc1C(F)(F)F [Example 27, 2-{5-[4-chloro-2-(trifluoromethyl)phenyl]-1-methyl-1H-imidazol-4-yl}pyridine-4-carboxylic acid] | 5.00 to 6.00 | ≥ 7.00 | ≥ 7.00 | ≥ 7.00
Cn1cnc(-c2cc(C(=O)O)ccn2)c1-c1ccc(Cl)c(Cl)c1 [Example 28, 2-[5-(3,4-dichlorophenyl)-1-methyl-1H-imidazol-4-yl]pyridine-4-carboxylic acid] | 6.00 to 7.00 | ≥ 7.00 | 6.00 to 7.00 | ≥ 7.00
COc1cc(-c2c(-c3cc(C(=O)O)ccn3)ncn2C)ccc1Cl [Example 30, 2-[5-(4-chloro-3-methoxyphenyl)-1-methyl-1H-imidazol-4-yl]pyridine-4-carboxylic acid] | 6.00 to 7.00 | ≥ 7.00 | ≥ 7.00 | ≥ 7.00
Cn1cnc(-c2cc(C(=O)O)ccn2)c1-c1ccc(Cl)c(C(F)(F)F)c1 [Example 31, 2-{5-[4-chloro-3-(trifluoromethyl)phenyl]-1-methyl-1H-imidazol-4-yl}pyridine-4-carboxylic acid] | 6.00 to 7.00 | ≥ 7.00 | 6.00 to 7.00 | ≥ 7.00
CCOc1cc(Cl)ccc1-c1c(-c2cc(C(=O)O)ccn2)ncn1C [Example 32, 2-[5-(4-chloro-2-ethoxyphenyl)-1-methyl-1H-imidazol-4-yl]pyridine-4-carboxylic acid] | 5.00 to 6.00 | ≥ 7.00 | 6.00 to 7.00 | ≥ 7.00
Cn1cnc(-c2cc(C(=O)O)ccn2)c1-c1ccc(Cl)cc1Cl [Example 33, 2-[5-(2,4-dichlorophenyl)-1-methyl-1H-imidazol-4-yl]pyridine-4-carboxylic acid] | 6.00 to 7.00 | ≥ 7.00 | ≥ 7.00 | ≥ 7.00
COCCCn1cnc(-c2cc(C(=O)O)ccn2)c1-c1ccc(Cl)c(F)c1 [Example 36, 2-[5-(4-chloro-3-fluorophenyl)-1-(3-methoxypropyl)-1H-imidazol-4-yl]pyridine-4-carboxylic acid] | 5.00 to 6.00 | ≥ 7.00 | ≥ 7.00 | ≥ 7.00
COCCn1cnc(-c2cc(C(=O)O)ccn2)c1-c1ccc(Cl)c(F)c1 [Example 37, 2-[5-(4-chloro-3-fluorophenyl)-1-(2-methoxyethyl)-1H-imidazol-4-yl]pyridine-4-carboxylic acid] | 5.00 to 6.00 | ≥ 7.00 | ≥ 7.00 | ≥ 7.00
CN(C)CCn1cnc(-c2cc(C(=O)O)ccn2)c1-c1ccc(Cl)c(F)c1 [Example 39, 2-{5-(4-chloro-3-fluorophenyl)-1-[2-(dimethylamino)ethyl]-1H-imidazol-4-yl}pyridine-4-carboxylic acid] | ≥ 7.00 | ≥ 7.00 | ≥ 7.00 | ≥ 7.00
O=C(O)c1ccnc(-c2cn(CCn3cccn3)cn2)c1 [Example 46, 2-{1-[2-(1H-pyrazol-1-yl)ethyl]-1H-imidazol-4-yl}pyridine-4-carboxylic acid] | 5.00 to 6.00 | 6.00 to 7.00 | 6.00 to 7.00 | 6.00 to 7.00
O=C(O)c1ccnc(-c2cn(Cc3ccccn3)cn2)c1 [Example 47, 2-[1-(pyridin-2-ylmethyl)-1H-imidazol-4-yl]pyridine-4-carboxylic acid] | 6.00 to 7.00 | ≥ 7.00 | ≥ 7.00 | ≥ 7.00
CN1CCC(n2cnc(-c3cc(C(=O)O)ccn3)c2)CC1 [Example 49, 2-[1-(1-methylpiperidin-4-yl)-1H-imidazol-4-yl]pyridine-4-carboxylic acid] | ≥ 7.00 | ≥ 7.00 | 6.00 to 7.00 | ≥ 7.00
O=C(O)c1ccnc(-c2cn(CC3CCCO3)cn2)c1 (stereo not drawn) [Example 51, 2-[1-(tetrahydrofuran-2-ylmethyl)-1H-imidazol-4-yl]pyridine-4-carboxylic acid] | 6.00 to 7.00 | ≥ 7.00 | ≥ 7.00 | ≥ 7.00
O=C(O)c1ccnc(-c2cn(C3CCNC3)cn2)c1 (stereo not drawn) [Example 52, 2-[1-(pyrrolidin-3-yl)-1H-imidazol-4-yl]pyridine-4-carboxylic acid] | ≥ 7.00 | ≥ 7.00 | 6.00 to 7.00 | ≥ 7.00
O=C(O)c1ccnc(-c2cn(CC3CCCN3)cn2)c1 (stereo not drawn) [Example 53, 2-[1-(pyrrolidin-2-ylmethyl)-1H-imidazol-4-yl]pyridine-4-carboxylic acid] | ≥ 7.00 | ≥ 7.00 | 6.00 to 7.00 | ≥ 7.00
CN1CCOC(Cn2cnc(-c3cc(C(=O)O)ccn3)c2)C1 (stereo not drawn) [Example 54, 2-{1-[(4-methylmorpholin-2-yl)methyl]-1H-imidazol-4-yl}pyridine-4-carboxylic acid] | ≥ 7.00 | ≥ 7.00 | ≥ 7.00 | ≥ 7.00
CN1CCCC(Cn2cnc(-c3cc(C(=O)O)ccn3)c2)C1 (stereo not drawn) [Example 55, 2-{1-[(1-methylpiperidin-3-yl)methyl]-1H-imidazol-4-yl}pyridine-4-carboxylic acid] | ≥ 7.00 | ≥ 7.00 | ≥ 7.00 | ≥ 7.00
CN(CCn1cnc(-c2cc(C(=O)O)ccn2)c1)Cc1ccccc1 [Example 57, 2-(1-{2-[benzyl(methyl)amino]ethyl}-1H-imidazol-4-yl)pyridine-4-carboxylic acid] | ≥ 7.00 | ≥ 7.00 | ≥ 7.00 | ≥ 7.00
O=C(O)c1ccnc(-c2cn(CCNCC3CC(F)(F)C3)cn2)c1 [Example 73, 2-[1-[2-[(3,3-difluorocyclobutyl)methylamino]ethyl]imidazol-4-yl]pyridine-4-carboxylic acid] | ≥ 7.00 | ≥ 7.00 | ≥ 7.00 | ≥ 7.00
O=C(O)c1ccnc(-c2cn(CCNCc3ccc(F)cc3)cn2)c1 [Example 74, 2-[1-[2-[(4-fluorophenyl)methylamino]ethyl]imidazol-4-yl]pyridine-4-carboxylic acid] | ≥ 7.00 | ≥ 7.00 | ≥ 7.00 | ≥ 7.00
O=C(O)c1ccnc(-c2cn(CCN3Cc4ccccc4C3)cn2)c1 [Example 76, 2-[1-[2-(1,3-dihydroisoindol-2-yl)ethyl]imidazol-4-yl]pyridine-4-carboxylic acid] | ≥ 7.00 | ≥ 7.00 | ≥ 7.00 | ≥ 7.00
COc1ccccc1CNCCn1cnc(-c2cc(C(=O)O)ccn2)c1 [Example 77, 2-[1-[2-[(2-methoxyphenyl)methylamino]ethyl]imidazol-4-yl]pyridine-4-carboxylic acid] | ≥ 7.00 | ≥ 7.00 | ≥ 7.00 | ≥ 7.00
O=C(O)c1ccnc(-c2cn(CCNCc3ccccc3Cl)cn2)c1 [Example 78, 2-[1-[2-[(2-chlorophenyl)methylamino]ethyl]imidazol-4-yl]pyridine-4-carboxylic acid] | ≥ 7.00 | ≥ 7.00 | ≥ 7.00 | ≥ 7.00
O=C(O)c1ccnc(-c2cn(CCN3Cc4ccc(F)cc4C3)cn2)c1 [Example 79, 2-[1-[2-(5-fluoro-1,3-dihydroisoindol-2-yl)ethyl]imidazol-4-yl]pyridine-4-carboxylic acid] | ≥ 7.00 | ≥ 7.00 | ≥ 7.00 | ≥ 7.00
CCc1ccccc1CNCCn1cnc(-c2cc(C(=O)O)ccn2)c1 [Example 80, 2-[1-[2-[(2-ethylphenyl)methylamino]ethyl]imidazol-4-yl]pyridine-4-carboxylic acid] | ≥ 7.00 | ≥ 7.00 | ≥ 7.00 | ≥ 7.00
O=C(O)c1ccnc(-c2cn(CCN3Cc4cccc(Cl)c4C3)cn2)c1 [Example 81, 2-[1-[2-(4-chloro-1,3-dihydroisoindol-2-yl)ethyl]imidazol-4-yl]pyridine-4-carboxylic acid] | ≥ 7.00 | ≥ 7.00 | ≥ 7.00 | ≥ 7.00
O=C(O)c1ccnc(-c2cn(CCN3Cc4ccc(Cl)cc4C3)cn2)c1 [Example 82, 2-[1-[2-(5-chloro-1,3-dihydroisoindol-2-yl)ethyl]imidazol-4-yl]pyridine-4-carboxylic acid] | ≥ 7.00 | ≥ 7.00 | ≥ 7.00 | ≥ 7.00
N#Cc1cccc2c1CN(CCn1cnc(-c3cc(C(=O)O)ccn3)c1)C2 [Example 83, 2-[1-[2-(4-cyano-1,3-dihydroisoindol-2-yl)ethyl]imidazol-4-yl]pyridine-4-carboxylic acid] | ≥ 7.00 | ≥ 7.00 | ≥ 7.00 | ≥ 7.00

Source: patent US10273222B2 (CELGENE QUANTICEL RESEARCH, INC., priority 2013, dated 2019)
